# Results: article PMC5890689 (RSC Advances, 2018)
# “Also recorded” adds a separate entry of the source. Read-outs that look alike come from different tables or passages of the source.
# Experiments:
# CDK2/cyclin A = CDK2/cyclin A (Homo sapiens, UniProt P24941); experiment: CDK2/cyclin A kinase assay; assay type: biochemical
# CDK9/cyclin T1 = CDK9/cyclin T1 (Homo sapiens, UniProt P50750); experiment: CDK9/cyclin T1 kinase assay; assay type: biochemical
# [1] = test system: KB (nasopharyngeal carcinoma); experiment: SRB assay, KB; conditions: for GI50: Homo sapiens, 72 h, read-out: GI50 KB
# A549 (lung cancer) [2] = experiment: SRB assay, A549; conditions: Homo sapiens, A549, 72 h, read-out: GI50 A549
# [3] = test system: MCF-7 (Michigan Cancer Foundation-7); experiment: SRB assay, MCF-7; conditions: Homo sapiens, MCF7, 72 h, read-out: GI50 MCF-7
# [4] = test system: MDA-MB-231 (human breast carcinoma cell line); experiment: SRB assay, MDA-MB-231; conditions: MDA-MB-231, 72 h, read-out: GI50 MDA-MB-231
# MDA-MB-231 cells = experiment: Cell cycle analysis by flow cytometry; assay type: cell-based, human; conditions: 24 h, five-fold GI50 (2a 6.0 μM, 2d 8.0 μM, 3b 10.5 μM)
# [5] = test system: KB-vin (vincristine-resistant KB subline); experiment: SRB assay, KB-vin; conditions: 3 days, mean ± SD of three
# A549 (lung cancer) [6] = conditions: read-out: GI50 A549; SRB assay; cited from earlier work
# [7] = test system: KB (nasopharyngeal carcinoma); conditions: SRB assay; cited from earlier work
# [8] = test system: KB-vin (vincristine-resistant KB subline); conditions: SRB assay; cited from earlier work
# Sequence of CDK9/cyclin T1 (P50750 whole entry): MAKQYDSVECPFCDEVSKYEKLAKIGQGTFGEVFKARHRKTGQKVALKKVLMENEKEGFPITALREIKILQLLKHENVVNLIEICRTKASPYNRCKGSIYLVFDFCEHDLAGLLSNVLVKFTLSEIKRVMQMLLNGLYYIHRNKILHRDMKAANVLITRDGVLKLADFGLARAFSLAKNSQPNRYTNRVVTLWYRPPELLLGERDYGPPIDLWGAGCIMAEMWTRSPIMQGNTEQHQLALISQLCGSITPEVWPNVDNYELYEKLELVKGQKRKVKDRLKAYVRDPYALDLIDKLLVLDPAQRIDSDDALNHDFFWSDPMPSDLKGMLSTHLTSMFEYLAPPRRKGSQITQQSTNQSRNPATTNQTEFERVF
# Sequence of CDK9/cyclin T1 (O60563 whole entry partner): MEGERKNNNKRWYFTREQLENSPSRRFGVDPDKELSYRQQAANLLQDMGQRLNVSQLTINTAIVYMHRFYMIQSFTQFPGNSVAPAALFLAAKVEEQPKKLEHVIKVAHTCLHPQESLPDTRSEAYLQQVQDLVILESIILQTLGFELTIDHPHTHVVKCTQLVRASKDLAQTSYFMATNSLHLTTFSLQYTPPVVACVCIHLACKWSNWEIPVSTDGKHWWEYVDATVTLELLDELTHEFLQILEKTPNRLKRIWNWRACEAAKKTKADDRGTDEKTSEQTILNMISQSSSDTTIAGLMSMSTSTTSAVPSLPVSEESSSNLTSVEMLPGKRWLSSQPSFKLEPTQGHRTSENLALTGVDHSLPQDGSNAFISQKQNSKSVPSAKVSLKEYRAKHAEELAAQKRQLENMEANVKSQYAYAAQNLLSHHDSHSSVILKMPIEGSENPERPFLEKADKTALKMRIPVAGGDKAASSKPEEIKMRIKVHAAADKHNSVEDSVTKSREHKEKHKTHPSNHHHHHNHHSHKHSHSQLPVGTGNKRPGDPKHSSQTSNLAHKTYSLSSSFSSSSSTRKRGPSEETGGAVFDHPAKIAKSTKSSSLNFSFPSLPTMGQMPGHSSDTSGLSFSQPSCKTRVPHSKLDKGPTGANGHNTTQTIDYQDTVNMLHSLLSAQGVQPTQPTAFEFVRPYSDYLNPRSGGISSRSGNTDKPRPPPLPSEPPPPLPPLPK
SMILES,IC50 (CDK2/cyclin A) [nM],IC50 (CDK9/cyclin T1) [nM],GI50 [1] [nM],GI50 (A549 (lung cancer) [2]) [nM],GI50 [3] [nM],GI50 [4] [nM],subtype selectivity for CDK9 over CDK2 (CDK9/cyclin T1; ratio of IC50 CDK2/cyclin A to CDK9/cyclin T1) [fold],"GI50 KB ([1]; SRB assay, 3 days, mean ± SD of three) [nM]",GI50 KB-vin [5] [nM],Effect on cell cycle progression (MDA-MB-231 cells),GI50 (A549 (lung cancer) [6]) [nM],GI50 KB [7] [nM],GI50 KB-vin [8] [nM]
"CN(C)CC(=O)Nc1cccc(Nc2ncc(F)c(Nc3c(Cl)cccc3Cl)n2)c1 [2f, N-(3-((4-((2,6-Dichlorophenyl)amino)-5-fluoropyrimidin-2-yl)amino)phenyl)-2-(dimethylamino)acetamide]",1600 ± 110,570 ± 120,7040 ± 80,3470 ± 440,6020 ± 510,13000 ± 380,,,,,,,
"CN(C)CC(=O)Nc1cccc(Nc2ncc(F)c(Nc3ccc(Cl)cc3)n2)c1 [2c, N-(3-((4-((4-Chlorophenyl)amino)-5-fluoropyrimidin-2-yl)amino)phenyl)-2-(dimethylamino)acetamide]",910 ± 110,1100 ± 20,2030 ± 320,2120 ± 260,3940 ± 310,6770 ± 380,,,,,,,
"CN1CCN(c2cccc(Nc3ncc(F)c(Nc4c(F)cccc4F)n3)c2)CC1 [3m, N ^4-(2,6-Difluorophenyl)-5-fluoro-N^2-(3-(4-methylpiperazin-1-yl)phenyl) pyrimidine-2,4-diamine]",470 ± 40,290 ± 2,400 ± 90,1250 ± 80,7760 ± 520,2840 ± 670,,,,,,,
"Cc1ccc(Nc2ncc(F)c(Nc3c(F)cccc3F)n2)cc1N1CCOCC1 [3o, N ^4-(2,6-difluorophenyl)-5-fluoro-N^2-(4-methyl-3-morpholinophenyl)pyrimidine-2,4-diamine]",5600 ± 30,740 ± 40,980 ± 50,850 ± 10,3750 ± 280,7000 ± 60,7.5,,,,,,
"CC(=O)c1ccc(Nc2nc(Nc3cccc(NC(=O)CN(C)C)c3)ncc2F)cc1 [2b, N-(3-((4-((4-Acetylphenyl)amino)-5-fluoropyrimidin-2-yl)amino)phenyl)-2-(dimethylamino)acetamide]",780 ± 40,390 ± 80,2200 ± 370,2330 ± 30,3800 ± 240,5800 ± 80,,,,,,,
"COc1ccc(Nc2nc(Nc3cccc(NC(=O)CN(C)C)c3)ncc2F)cc1 [2a, 2-(Dimethylamino)-N-(3-((5-fluoro-4-((4-methoxyphenyl)amino)pyrimidin-2-yl)amino)phenyl)acetamide]",320 ± 280,300 ± 10,570 ± 10,720 ± 10,670 ± 60,1200 ± 60,,,,induced cell cycle arrest in G2/M phase; also recorded: induced cell cycle arrest at G2/M,,,
"CN(C)CC(=O)Nc1cccc(Nc2ncc(F)c(Nc3ccc(N(C)C)cc3)n2)c1 [2d, 2-(Dimethylamino)-N-(3-((4-((4-(dimethylamino)phenyl)amino)-5-fluoropyrimidin-2-yl)amino)phenyl)acetamide]",940 ± 430,320 ± 50,3080 ± 160,1890 ± 190,2830 ± 30,1640 ± 150,,,,induced cell cycle arrest in G2/M phase; also recorded: induced cell cycle arrest at G2/M,,,
"CC(=O)O[C@H]1C(=O)[C@@]2(C)[C@H]([C@H](OC(=O)c3ccccc3)[C@]3(O)C[C@H](OC(=O)[C@H](O)[C@@H](NC(=O)c4ccccc4)c4ccccc4)C(C)=C1C3(C)C)[C@]1(OC(C)=O)CO[C@@H]1C[C@@H]2O [Paclitaxel, reference compound]",,,,5.98 ± 0.4,8.78 ± 0.79,7.76 ± 0.39,,4.94 ± 0.21,1518.36 ± 141.54,,,,
"CN(C)CC(=O)Nc1cccc(Nc2ncc(F)c(NN3CCN(C)CC3)n2)c1 [2h, 2-(Dimethylamino)-N-(3-((5-fluoro-4-((4-methylpiperazin-1-yl)amino)pyrimidin-2-yl)amino)phenyl)acetamide]",5600 ± 530,2200 ± 320,> 10000,> 10000,> 10000,> 10000,,,,,,,
"CN1CCCN(c2cccc(Nc3ncc(F)c(Nc4c(F)cccc4F)n3)c2)CC1 [3n, N ^4-(2,6-Difluorophenyl)-5-fluoro-N^2-(3-(4-methyl-1,4-diazepan-1-yl)phenyl) pyrimidine-2,4-diamine]",950 ± 270,1600 ± 100,4440 ± 420,710 ± 10,7160 ± 540,4770 ± 270,,,,,,,
"CN(C)CC(=O)Nc1cccc(Nc2ncc(F)c(Nc3cc(F)cc(F)c3)n2)c1 [2g, N-(3-((4-((3,5-Difluorophenyl)amino)-5-fluoropyrimidin-2-yl)amino)phenyl)-2-(dimethylamino)acetamide]",570 ± 50,490 ± 270,560 ± 80,710 ± 60,670 ± 30,4640 ± 60,,,,,,,
"CN1CC[C@H](c2c(O)cc(O)c3c(=O)cc(-c4ccccc4Cl)oc23)[C@H](O)C1 [FVP, Flavopiridol]",,,,,,,,,,,140 ± 10,160 ± 10,180 ± 10

# Further lines, with some results ahead:
IC50 (CDK2/cyclin A) [nM],IC50 (CDK9/cyclin T1) [nM],GI50 [1] [nM],GI50 (A549 (lung cancer) [2]) [nM],GI50 [3] [nM],GI50 [4] [nM],subtype selectivity for CDK9 over CDK2 (CDK9/cyclin T1; ratio of IC50 CDK2/cyclin A to CDK9/cyclin T1) [fold],"GI50 KB ([1]; SRB assay, 3 days, mean ± SD of three) [nM]",GI50 KB-vin [5] [nM],SMILES,Effect on cell cycle progression (MDA-MB-231 cells),GI50 (A549 (lung cancer) [6]) [nM],GI50 KB [7] [nM],GI50 KB-vin [8] [nM]
300 ± 70,65 ± 23,2310 ± 110,1200 ± 50,2650 ± 400,3240 ± 50,,,,"CN(C)CCC(=O)Nc1cccc(Nc2ncc(F)c(Nc3c(F)cccc3F)n2)c1 [3c, N-(3-((4-((2,6-Difluorophenyl)amino)-5-fluoropyrimidin-2-yl)amino)phenyl)-3-(dimethylamino)propanamide]",,,,
750 ± 140,230 ± 10,3820 ± 110,720 ± 10,6730 ± 230,5420 ± 350,,,,"CN(C)CCNC(=O)c1cccc(Nc2ncc(F)c(Nc3c(F)cccc3F)n2)c1 [3e, 3-((4-((2,6-Difluorophenyl)amino)-5-fluoropyrimidin-2-yl)amino)-N-(2-(dimethylamino)ethyl)benzamide]",,,,
380 ± 60,80 ± 1,3270 ± 130,1310 ± 180,2730 ± 480,2070 ± 120,,,,"CC(C)(C)NCC(=O)Nc1cccc(Nc2ncc(F)c(Nc3c(F)cccc3F)n2)c1 [3b, 2-(tert-Butylamino)-N-(3-((4-((2,6-difluorophenyl)amino)-5-fluoropyrimidin-2-yl)amino)phenyl)acetamide]",induced cell cycle arrest in G2/M phase; also recorded: induced cell cycle arrest at G2/M,,,
130 ± 20,660 ± 20,2600 ± 450,1090 ± 30,6160 ± 140,3300 ± 230,,,,"CN1CCC(C(=O)Nc2cccc(Nc3ncc(F)c(Nc4c(F)cccc4F)n3)c2)CC1 [3d, N-(3-((4-((2,6-Difluorophenyl)amino)-5-fluoropyrimidin-2-yl)amino)phenyl)-1-methylpiperidine-4-carboxamide]",,,,
780 ± 120,480 ± 80,5730 ± 350,4900 ± 450,10230 ± 30,5940 ± 330,,,,"CN(C)CC(=O)Nc1cccc(Nc2ncc([N+](=O)[O-])c(Nc3c(F)cccc3F)n2)c1 [2i, N-(3-((4-((2,6-Difluorophenyl)amino)-5-nitropyrimidin-2-yl)amino)phenyl)-2-(dimethylamino)acetamide]",,,,
1100 ± 150,480 ± 220,590 ± 50,720 ± 40,5970 ± 190,> 10000,,,,"CC(C)CC(=O)Nc1cccc(Nc2ncc(F)c(Nc3c(F)cccc3F)n2)c1 [3a, N-(3-((4-((2,6-Difluorophenyl)amino)-5-fluoropyrimidin-2-yl)amino)phenyl)-3-methylbutanamide]",,,,
,,3800 ± 340,3040 ± 180,4480 ± 390,6010 ± 80,,,,"CN(C)CC(=O)Nc1ccc(Nc2ncc(F)c(Nc3c(F)cccc3F)n2)cc1 [3k, N-(4-((4-((2,6-Difluorophenyl)amino)-5-fluoropyrimidin-2-yl)amino)phenyl)-2-(dimethylamino)acetamide]",,,,
,,2870 ± 240,700 ± 2,1880 ± 120,4050 ± 140,,,,"COc1ccc(Nc2ncc(F)c(Nc3c(F)cccc3F)n2)cc1NC(=O)CN(C)C [3i, N-(5-((4-((2,6-Difluorophenyl)amino)-5-fluoropyrimidin-2-yl)amino)-2-methoxyphenyl)-2-(dimethylamino)acetamide]",,,,
,,4780 ± 380,1310 ± 70,4490 ± 30,3980 ± 160,,,,"CN(C)CC(=O)Nc1cccc(Nc2ncc(F)c(Nc3c(F)cccc3F)n2)c1 [2e, N-(3-((4-((2,6-Difluorophenyl)amino)-5-fluoropyrimidin-2-yl)amino)phenyl)-2-(dimethylamino)acetamide]",,,,
,,600 ± 40,1150 ± 80,2370 ± 620,5310 ± 190,,,,"Cc1ccc(Nc2ncc(F)c(Nc3c(F)cccc3F)n2)cc1NC(=O)CN(C)C [3j, N-(5-((4-((2,6-Difluorophenyl)amino)-5-fluoropyrimidin-2-yl)amino)-2-methylphenyl)-2-(dimethylamino)acetamide]",,,,
